This note sets out measurements from patent US12351561B2, “Crystalline (2S,4R)-5-(5'-chloro-2'-fluoro-[1,1'-biphenyl]-4-yl)-2-(ethoxymethyl)-4-(3-hydroxyisoxazole-5-carboxamido)-2-methylpentanoic acid and uses thereof” (THERAVANCE BIOPHARMA R&D IP, LLC, priority 2016, dated 2025).

The nature of series [1]: Assay 1: IV/PO pharmacokinetic study in dogs. It is filed as in vivo, male beagle dogs. The following applies: dog; for bioavailability / AUC(0-t): plasma; for bioavailability: po; for AUC(0-t): read-out: AUClast Mean. On the procedure:
Each rat, dog or monkey PK study began with formulation of the test compound. Appropriate masses of each test compound were added into a volume of vehicle (e.g. 5% sodium bicarbonate, 5% dextrose in H2O) such that the final concentration of each compound was appropriate to be dosed. Although a homogenous suspension were acceptable for oral dosing, intravenous dosing solutions were sterile-filtered (0.2 μm) prior to dosing to ensure no particulates were administered.
In the dog study, male non-naïve beagle dogs (3 per route) housed at Agilux Laboratories (Worcester, MA) and weighing between 9-14 kg received either an oral or intravenous dose. Oral doses were delivered into the stomach using a syringe and gavage tube followed by a water flush of approximately 10 mL. Oral doses were administered at a volume of 2 mL/kg. Intravenous doses were administered via a percutaneous catheter placed in sphenous vein followed by a saline flush of approximately 3 mL. Intravenous doses were administered at a volume of 0.5 mL/kg. […] Serial blood samples were harvested via direct venipuncture at 3 min, 15 min, 30 min, 1 h, 2 h, 4 h, 6 h, 8 h, 12 h, and 24 h post-dose. All samples were collected manually into microtainer tubes containing EDTA as the anticoagulant and were processed to plasma by refrigerated centrifugation.
(§1) Plasma concentrations of Compound I were determined by LC/MS/MS. Plasma study samples were vortexed and placed in a 96-well plate. The samples were extracted with 200 μL of acetonitrile with an internal standard. The extract was centrifuged for 10 minutes at 2809 RPM and 50 μL supernatant was mixed with 200 μL 0.2% formic acid in water. Samples (10-15 μL) were injected on a ThermoFisher HyPURITY™ (C18 50×2.1 mm) column with a flow rate of 0.35 mL/min. Mobile phase A consisted of water: acetonitrile: formic acid (95:5:0.1, v:v:v) and Mobile phase B consisted of methanol: acetonitrile: formic acid (50:50:0.1, v:v:v) (dog). Mobile phase A consisted of 0.2% formic acid in water and mobile phase B consisted of 0.2% formic acid in acetonitrile (rat and monkey). Pharmacokinetic parameters of Compound I were determined by non-compartmental analysis (Model 201 and Model 200 for IV and PO administration, respectively) using Phoenix WinNonlin Version 6.3 (Certara, Sunnyvale, CA) and using individual plasma concentration time profiles from 3 animals per treatment group.
(§2) Plasma clearance was determined from the intravenous arm of the study, and represents the rate at which plasma is cleared of drug. It is equal to the dose divided by the area under the plasma concentration-time curve. In addition to plasma clearance, it is also essential for an orally administered drug to reach efficacious systemic levels following oral delivery. Oral bioavailability is a measurement of plasma exposures following oral administration relative to exposures following intravenous administration.

The nature of series [2]: Assay 1: IV/PO pharmacokinetic study in monkeys. The following applies: for bioavailability / AUC(0-t): cynomolgus monkey, plasma; for AUC(0-t): read-out: AUClast Mean; for CLlast Mean: monkey. It is filed as in vivo, male cynomolgus monkeys. On the procedure:
A monkey PK study was performed with an appropriate mass of Compound I in volume of vehicle (e.g., 5% sodium bicarbonate, 5% dextrose in H2O, pH 7.4, for oral and IV and filtered through a […] PDVF syringe for IV) such that the final concentration was dosed at 1.0 mg/mL for both IV and PO.
Intravenous doses of Compound I were administered through an indwelling catheter in the cephalic vein followed by a saline flush of approximately 3 mL. Intravenous doses were administered at a volume of 1 mL/kg. Oral doses were delivered into the stomach using a syringe and gavage tube followed by a water flush of approximately 10 mL. Oral doses were administered at a volume of 2 mL/kg. Blood samples were collected from each animal at each time point (pre-dose, 0.083 h, 0.25 h, 0.5 h, 1 h, 2 h, 4 h, 6 h, 8 h, 12 h, and 24 h) via the cephalic, femoral, or sphenous vein through […]. All samples were collected into K2EDTA tubes and placed on ice. Samples were processed to plasma by centrifugation (3200 rpm, 10 minutes, 5° C.), and acidified with a final concentration of 2% acetic acid. Aliquots of plasma were transferred to a 96-well plate tubes and stored frozen (−70° C.) prior to bioanalysis.
as §1, §2

Series [3] in a line: Assay 3.2: PK profile, oral bioavailability and renal excretion in human (SAD, 14C i.v. microtracer). It counts as in vivo. The protocol: A Phase 1 single-ascending dose (SAD) clinical trial of Compound I′ (Form I), which converts to or dissolves to provide its soluble form Compound I in the body, was conducted in order to assess neprilysin inhibition for the treatment of a range of cardiovascular and renal diseases, including, e.g., chronic kidney disease, diabetic nephropathy, acute and chronic heart failure, heart failure with reduced ejection fraction, heart failure with preserved ejection fraction, post-myocardial infarction asymptomatic left ventricular dysfunction (post-MI asymptomatic LVD), subacute heart failure and resistant and isolated systolic hypertension. Safety and tolerability, pharmacokinetic (support for QD/BID dosing and non-renal excretion), pharmacodynamic (test for target engagement biomarkers cGMP and ANP), food effect, and absolute oral bioavailability and renal elimination using a ^14C intravenous microtracer, inter alia, were tested.
The Phase 1 study was a double-blind, randomized placebo-controlled single ascending dose study in healthy male and female volunteers randomized in a 4:1 ratio. The study enrolled 56 healthy volunteers over multiple weeks for the ascending-dose portion, which included cohorts (n=10/cohort of 8 active and 2 placebo) administered single ascending doses of 50 mg, 100 mg, 200 mg, 400 mg and 600 mg. A sixth cohort (n=6) was administered i.v. microtracer and oral doses of 10 μg and 100 mg, respectively.

`CCOC[C@](C)(C[C@@H](Cc1ccc(-c2cc(Cl)ccc2F)cc1)NC(=O)c1cc(O)no1)C(=O)O` [Compound I, (2S,4R)-5-(5′-Chloro-2′-fluoro-[1,1′-biphenyl]-4-yl)-2-(ethoxymethyl)-4-(3-hydroxyisoxazole-5-carboxamido)-2-methylpentanoic Acid]: the “CLlast Mean” value in series [1] (PO, 0.1 mg/kg) amounted to 2.83 L/h/kg; in series [2] (IV, 1 mg/kg), 0.38 L/h/kg; in series [2] (PO, 2 mg/kg), 1.31 L/h/kg. The bioavailability (in general, dose-corrected exposure relative to a reference, in per cent) is 7 to 13% in series [1] (higher doses (100-300 mg/kg), data not shown, read-out: mean bioavailability); roughly 17% in series [1] (male, beagle, 0.1 mg/kg, read-out: Oral Bioavailability Mean); 55 to 83% in series [2] (po, higher doses (30 and 100 mg/kg), three different formulations, data not shown, read-out: mean bioavailability); 41.8% in series [2] (male, IV 1 mg/kg, PO 2 mg/kg, read-out: Oral Bioavailability Mean); roughly 80% in series [3] (both sexes, in vivo, po, 100 mg, human, SAD clinical trial). In addition, the AUC(0-t) in series [1] (male, beagle, IV, 0.1 mg/kg) was 210 ng·h/mL; in series [1] (male, beagle, PO, 0.1 mg/kg), 34.9 ng·h/mL; in series [2] (male, IV, 1 mg/kg), 2290 ng·h/mL; in series [2] (male, PO, 2 mg/kg), 1910 ng·h/mL. Besides, the pharmacokinetic profile entry in series [3] (healthy subjects, single doses 50-600 mg) is “dose-proportional”. Moreover, the “renal elimination (of total administered dose)” value in series [3] (human, SAD clinical trial, confirmed by intravenous microtracer) is given as less than 1%.
